Values joined by “and” are separate entries in the source; they are usually repeats but may differ in a detail not shown here. Identical values can stand only once. Toxic doses and inconclusive results are not listed. Rule for the calls: active = survival T/C of 150% or more; inactive = T/C below 125% in these data.
Test system: P388 leukemia ip, CD2F1 mice, survival T/C
Assay: NCI In Vivo Anticancer Drug Screen. Data for tumor model P388 Leukemia (intraperitoneal) in CD2F1 (CDF1) mice
Settings: endpoint: median survival time, higher = longer survival
In short: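 Mice carrying the transplanted tumor received test compound or vehicle. Survival was recorded in each group, and the value is the treated-group measurement divided by that of the vehicle-treated control group.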

[1] = dose: 50.0 mg/kg/injection, schedule: Q04DX003 (ip), vehicle: saline
[2] = dose: 100.0 mg/kg/injection, schedule: Q04DX003 (ip), vehicle: saline
[3] = dose: 200.0 mg/kg/injection, schedule: Q04DX003 (ip), vehicle: saline
[4] = dose: 400.0 mg/kg/injection, schedule: Q04DX003 (ip), vehicle: saline
[5] = dose: 25.0 mg/kg/injection, schedule: Q01DX009 (ip), vehicle: Klucel (hydroxypropylcellulose) (HPC)
[6] = dose: 50.0 mg/kg/injection, schedule: Q01DX009 (ip), vehicle: Klucel (hydroxypropylcellulose) (HPC)
[7] = dose: 100.0 mg/kg/injection, schedule: Q01DX009 (ip), vehicle: Klucel (hydroxypropylcellulose) (HPC)
[8] = dose: 200.0 mg/kg/injection, schedule: Q01DX009 (ip), vehicle: Klucel (hydroxypropylcellulose) (HPC)
[9] = dose: 100.0 mg/kg/injection, schedule: Q01DX009 (ip), vehicle: saline
[10] = dose: 25.0 mg/kg/injection, schedule: Q01DX005 (ip), vehicle: Klucel (hydroxypropylcellulose) (HPC)
[11] = dose: 50.0 mg/kg/injection, schedule: Q01DX005 (ip), vehicle: Klucel (hydroxypropylcellulose) (HPC)
[12] = dose: 100.0 mg/kg/injection, schedule: Q01DX005 (ip), vehicle: Klucel (hydroxypropylcellulose) (HPC)
[13] = dose: 6.25 mg/kg/injection, schedule: Q01DX009 (ip), vehicle: saline
[14] = dose: 12.5 mg/kg/injection, schedule: Q01DX009 (ip), vehicle: saline

Measured: T/C

NNC(=O)CCCO
inactive: [1] 105 % of control | [2] 98 % of control | [3] 103 % of control | [4] 105 % of control

O=c1[nH]/c(=C/c2ccccc2)c(=O)[nH]/c1=C/C=C/c1ccccc1
inactive: [5] 107 % of control | [6] 104 % of control | [7] 102 % of control

Cc1ccc(C(=O)/C(N)=C/c2ccccn2)cc1
inactive: dose: 100.0 mg/kg/injection, schedule: Q01DX001 (ip), vehicle: saline 107 % of control | dose: 200.0 mg/kg/injection, schedule: Q01DX001 (ip), vehicle: saline 105 % of control | dose: 400.0 mg/kg/injection, schedule: Q01DX001 (ip), vehicle: saline 101 % of control

CCN1Cc2c(/C=C/c3ccccc3)nc3ccc(OC)cc3c2N(c2cccc(Cl)c2)C1
inactive: [5] 103 % of control | [6] 94 % of control | [7] 102 % of control | [8] 98 % of control

[Cl][Co][Cl].[NH-]CC[N-]CC[N-]CC[NH-]
inactive: dose: 12.5 mg/kg/injection, schedule: Q01DX005 (ip), vehicle: saline 100 % of control | dose: 25.0 mg/kg/injection, schedule: Q01DX005 (ip), vehicle: saline 104 % of control | dose: 50.0 mg/kg/injection, schedule: Q01DX005 (ip), vehicle: saline 114 % of control and 107 % of control and 113 % of control | dose: 50.0 mg/kg/injection, schedule: Q01DX009 (ip), vehicle: saline 102 % of control | dose: 100.0 mg/kg/injection, schedule: Q01DX005 (ip), vehicle: saline 109 % of control | [9] 100 % of control

c1ccc(CC2NC(Cc3ccccc3)N3C(Cc4ccccc4)N23)cc1 (stereo not given)
inactive: dose: 100.0 mg/kg/injection, schedule: Q04DX003 (ip), vehicle: Klucel (hydroxypropylcellulose) (HPC) 102 % of control | dose: 200.0 mg/kg/injection, schedule: Q04DX003 (ip), vehicle: Klucel (hydroxypropylcellulose) (HPC) 100 % of control | dose: 400.0 mg/kg/injection, schedule: Q04DX003 (ip), vehicle: Klucel (hydroxypropylcellulose) (HPC) 93 % of control

COC1=C2CCC3c4cc(OC)c(OC)cc4CC[N+]3=C2CC1 (stereo not given)
inactive: [10] 97 % of control | [11] 99 % of control | [12] 113 % of control

Cc1cccnc1NS(=O)(=O)c1ccccc1
inactive: dose: 100.0 mg/kg/injection, schedule: Q01DX009 (ip), vehicle: saline with Tween-80 100 % of control | dose: 200.0 mg/kg/injection, schedule: Q01DX009 (ip), vehicle: saline with Tween-80 100 % of control | dose: 400.0 mg/kg/injection, schedule: Q01DX009 (ip), vehicle: saline with Tween-80 100 % of control

C/C(=N/NC(=S)N1CCCCCC1)c1ncccn1
inactive: dose: 6.25 mg/kg/injection, schedule: Q01DX005 (ip), vehicle: saline with Tween-80 104 % of control | dose: 12.5 mg/kg/injection, schedule: Q01DX005 (ip), vehicle: saline with Tween-80 115 % of control

CC1(C)[C@H](C(=O)O)N2C(=O)[C@@H](NC(=O)C(c3ccccc3)c3ccccc3)[C@H]2S1=O (stereo not given in full)
inactive: [10] 101 % of control | [11] 99 % of control | [12] 101 % of control

COC(=O)N1c2ccccc2N(C(=O)OC)c2c1oc1ccccc1c2=O
inactive: dose: 60.0 mg/kg/injection, schedule: Q01DX005 (ip), vehicle: saline with Tween-80 92 % of control | dose: 120.0 mg/kg/injection, schedule: Q01DX005 (ip), vehicle: saline with Tween-80 91 % of control | dose: 240.0 mg/kg/injection, schedule: Q01DX005 (ip), vehicle: saline with Tween-80 101 % of control

Cc1ccc(S(=O)(=O)/N=C/[N-][n+]2cccc(C)c2)cc1
inactive: [2] 104 % of control | [3] 97 % of control | [4] 97 % of control

N=C(N)c1ccc(N=Nc2cc(N=Nc3ccccc3)ccc2O)cc1
inactive: [10] 109 % of control | [11] 113 % of control | [12] 115 % of control | dose: 200.0 mg/kg/injection, schedule: Q01DX005 (ip), vehicle: Klucel (hydroxypropylcellulose) (HPC) 115 % of control

CCCCCCCCP(=O)(N1CC1C)N1CC1C (stereo not given)
inactive: dose: 3.13 mg/kg/injection, schedule: Q01DX009 (ip), vehicle: saline 109 % of control | [13] 109 % of control | dose: 12.5 mg/kg/injection, schedule: Q01DX009 (ip), vehicle: saline with Tween-80 122 % of control | [14] 109 % of control | dose: 12.5 mg/kg/injection, schedule: Q04DX003 (ip), vehicle: saline with Tween-80 100 % of control | dose: 25.0 mg/kg/injection, schedule: Q04DX003 (ip), vehicle: saline with Tween-80 95 % of control | dose: 50.0 mg/kg/injection, schedule: Q04DX003 (ip), vehicle: saline with Tween-80 109 % of control | [1] 108 % of control

COc1ccc(C2=Nc3ccccc3SC(c3ccc(OC)cc3)C2)cc1 (stereo not given)
inactive: [6] 102 % of control | [7] 96 % of control | [8] 88 % of control

CCOC(=O)C[CH2][Sn]([Cl])([Cl])[Cl]
inactive: [2] 100 % of control | [3] 103 % of control

O=C(N/N=C/c1cccc2ccccc12)c1cccnc1
inactive: [13] 100 % of control | [14] 89 % of control | [9] 98 % of control

— PubChem BioAssay AID330 (DTP/NCI, 2004)
